Test: Solubility (dissolution concentration) of axitinib polymorph at pH 1 and pH 2
Format: physicochemical
Protocol: Experimental Example 4. Solubility of new axitinib polymorph (SCAI-Form)
Method for measuring solubility at pH 1: Stirred for 15 minutes at a concentration of 5 mg/mL, and then filtered, diluted 10 times with DW, and analyzed. (The value calculated as [measured value x 10] is described in the results)
Method for measuring solubility at pH 2: Stirred for 15 minutes at a concentration of 1 mg/mL, and then filtered, analyzed, and shown in Table 6.

Row | Compound | Dissolution concentration at pH 1 (pH 1, stirred for 15 minutes at 5 mg/mL, filtered, diluted 10 times with DW, value = measured value x 10) [mg/mL] | Dissolution concentration at pH 2 (pH 2, stirred for 15 minutes at 1 mg/mL, filtered, analyzed) [mg/mL] | solubility of SCAI-Form relative to API (comparison with Axitinib API, from Table 6 (pH 1 and pH 2))
1 | 6-[2-(methylcarbamoyl)phenylsulfanyl]-3-E-[2-(pyridin-2-yl)ethenyl]indazole [API] | 2.661 | 0.073 | 
2 | CNC(=O)c1ccccc1Sc1ccc2c(/C=C/c3ccccn3)n[nH]c2c1 [SCAI-Form, axitinib] |  |  | about twice higher
